Literature values, collected in US4842859A, “Pharmaceutical compositions for reducing hyperlipidemia and platelet-aggregation” (priority 1986, dated 1989).

Columns and labels:
[1] = tested on: transient ischemic attacks; settings: men; prior art
[2] = patients; prior art; listed as clofibrate

Row | Structure (SMILES) | effect on incidence of transient ischemic attacks [1] | side effects / toxic effects [2]
1 | CC(=O)Oc1ccccc1C(=O)O [Aspirin] | decrease the incidence of transient ischemic attacks | 
2 | CCOC(=O)C(C)(C)Oc1ccc(Cl)cc1 [Clofibrate] |  | decreased libido and breast tenderness
